What was measured:
[1] = Inhibition of ACK1 D163E mutant in mouse BaF3 cells; assay type: cell-based
[2] = Inhibition of ACK1 R806Q mutant in mouse BaF3 cells; assay type: cell-based
Activated CDC42 kinase 1 [3] = target: T1, Activated CDC42 kinase 1 (Homo sapiens, UniProt Q07912); experiment: Inhibition of ACK1 (unknown origin)
Target sequence in this assay (Q07912 whole entry): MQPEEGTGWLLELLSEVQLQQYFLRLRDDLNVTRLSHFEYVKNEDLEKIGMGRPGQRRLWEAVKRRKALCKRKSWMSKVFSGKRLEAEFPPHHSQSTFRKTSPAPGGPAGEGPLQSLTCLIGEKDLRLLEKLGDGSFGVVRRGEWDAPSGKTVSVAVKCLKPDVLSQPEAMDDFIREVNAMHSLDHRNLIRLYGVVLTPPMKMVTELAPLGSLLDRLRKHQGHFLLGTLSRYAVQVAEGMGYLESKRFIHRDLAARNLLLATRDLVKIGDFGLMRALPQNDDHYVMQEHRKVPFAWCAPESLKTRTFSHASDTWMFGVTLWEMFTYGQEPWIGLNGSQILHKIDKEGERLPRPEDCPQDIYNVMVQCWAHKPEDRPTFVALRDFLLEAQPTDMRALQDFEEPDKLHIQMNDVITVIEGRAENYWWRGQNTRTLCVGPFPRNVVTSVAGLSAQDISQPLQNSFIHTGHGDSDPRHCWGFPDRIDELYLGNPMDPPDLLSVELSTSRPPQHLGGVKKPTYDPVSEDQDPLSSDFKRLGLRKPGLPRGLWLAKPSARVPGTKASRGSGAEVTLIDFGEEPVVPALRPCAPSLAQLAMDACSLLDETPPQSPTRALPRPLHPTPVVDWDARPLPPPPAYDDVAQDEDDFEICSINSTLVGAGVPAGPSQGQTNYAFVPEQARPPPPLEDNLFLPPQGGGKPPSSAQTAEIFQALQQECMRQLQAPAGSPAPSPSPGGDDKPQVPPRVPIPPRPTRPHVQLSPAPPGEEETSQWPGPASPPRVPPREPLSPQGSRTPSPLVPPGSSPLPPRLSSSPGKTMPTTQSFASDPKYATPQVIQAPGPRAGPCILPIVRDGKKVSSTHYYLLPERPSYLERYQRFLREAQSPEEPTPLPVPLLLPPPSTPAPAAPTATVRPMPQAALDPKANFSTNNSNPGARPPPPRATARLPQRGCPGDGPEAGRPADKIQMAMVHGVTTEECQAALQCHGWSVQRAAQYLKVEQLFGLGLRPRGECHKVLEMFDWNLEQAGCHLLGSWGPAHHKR

Activated CDC42 kinase 1 [4] = target: T1, Activated CDC42 kinase 1; experiment: Inhibition of ACK1 (unknown origin) at 10 uM relative to control
Target sequence in this assay (Q07912 whole entry, looked up): as the sequence (Q07912 whole entry) above

MDA-MB-157 = experiment: Antiproliferative activity against human MDA-MB-157 cells treated for 96 hrs by trypan blue exclusion assay; assay type: functional, cell-based; conditions: MDA-MB-157, 96 h

CN1c2ccccc2C(=O)Nc2cnc(Nc3ccc(N4CCC(O)CC4)cc3)nc21
IC50 [1]: 16 nM | IC50 [2]: 77 nM

CN1CC[C@H](c2c(O)cc(O)c3c(=O)cc(-c4ccccc4Cl)oc23)[C@H](O)C1 [ALVOCIDIB]
IC50 (Activated CDC42 kinase 1 [3]): < 20000 nM | inhibition (Activated CDC42 kinase 1 [4]): 74%

Cc1nc(Nc2ncc(C(=O)Nc3c(C)cccc3Cl)s2)cc(N2CCN(CCO)CC2)n1 [DASATINIB]
IC50 [1]: 0.1 nM | IC50 [2]: 1.3 nM

Cc1cc(Nc2ncc(Cl)c(Nc3ccccc3S(=O)(=O)C(C)C)n2)c(OC(C)C)cc1C1CCNCC1 [CERITINIB]
IC50 (Activated CDC42 kinase 1 [3]): 33.6 nM

CN1CCN(c2ccc(Nc3ncc(Cl)c(NC[C@H]4CCCO4)n3)cc2)CC1
IC50 (MDA-MB-157): 480 nM

CNc1cc2c(Nc3cccc(Br)c3)ncnc2cn1
IC50 (Activated CDC42 kinase 1 [3]): 200 nM

CCN(CC)CCNC(=O)c1c(C)[nH]c(/C=C2\C(=O)Nc3ccc(F)cc32)c1C
inhibition (Activated CDC42 kinase 1 [4]): 33%

C=CC(=O)Nc1cc(Nc2nccc(-c3cn(C)c4ccccc34)n2)c(OC)cc1N(C)CCN(C)C [OSIMERTINIB]
IC50 (Activated CDC42 kinase 1 [3]): 71 nM

COc1cc(N2CCN(C)CC2)ccc1Nc1ncc2c(n1)N(C)c1ccccc1C(=O)N2
IC50 [1]: 38 nM | IC50 [2]: 113 nM

COc1cc2ncnc(Nc3ccc(F)c(Cl)c3)c2cc1OCCCN1CCOCC1
inhibition (Activated CDC42 kinase 1 [4]): 77%
